Where two headings read alike, the source gives them in different places.
Legend:
[1] = tested on: Hormone Receptor Positive (+) metastatic breast cancer; type: in vivo, human; conditions: in combination with letrozole 2.5 mg/day per oral
Protocol: An open-label, randomized multi-institution clinical study using the hydrochloride salt of Compound A alone and in combination with the therapeutic agent letrozole for the treatment of post-menopausal patients with Hormone Receptor Positive (+) metastatic breast cancer is investigated. Patients are evaluated for safety profile/tolerability and preliminary antitumor effect.
Patients are included in the study if they meet the following criteria: at least 18 years of age, ECOG performance status 0-1, suffering from clinical stage 1V invasive mammary carcinoma (ER-positive, or PR-positive) by immunohistochemistry, life expectancy equal to or greater than 6 months, adequate hematologic, hepatic and renal function (ANC≥1500/mm^3, platelet count≥100,000 mm^3, HgB≥9 g/dL, creatine≤1.5×upper limits of normal, bilirubin≤1.5×upper limits of normal, SGOT, SGPT≤2.5×upper limits of normal if no liver metasis present or SGOT, SGPT alkaline phosphatase≤5×upper limits of normal if liver metasis present, capable of swallowing and retaining oral medication, disease free of prior invasive cancers for >5 years (exception of basal or squamous cancer of skin or cervical carcinoma in situ). Patients may receive concurrent radiation therapy to painful bone metastases or areas of impending bone fracture as long as radiation therapy is completed≤2 weeks prior to study and recovered from toxicity (≤grade 1) induced by this radiation treatment. Post-menopausal female subjects are defined prior to protocol enrollment by any of the following: Subjects at least 55 years of age; Subjects under 55 years of age and amenorrheic for at least 12 months or follicle-stimulating hormone (FSH) values[…] and estradiol levels≤20 IU/L; prior bilateral oophorectomy; prior radiation castration with amenorrhea for at least 6 months; current use of an LHRH agonist for more than 12 months.
Patients with the following mood disorders as judged by investigator or psychiatrist are also excluded: medically documented history of or active major depressive episode; bipolar disorder (I or II), obsessive-compulsive disorder, schizophrenia, a history of suicidal attempt or ideation, or homicidal ideation (immediate risk of doing harm to others); or ≥CTCAE grade 3 anxiety.
In the first stage of the study, safety and tolerability of the hydrochloride salt of Compound A is evaluated in combination with the therapeutic agent letrozole in post-menopausal patients with Hormone Receptor Positive (+) metastatic breast cancer is investigated. The maximum tolerated dose of the hydrochloride salt of Compound A […] is determined at dosages of 100 mg per oral daily, 80 mg per oral daily, and 50 mg per oral daily, in combination with letrozole administered at 2.5 mg/day per oral.
In the second stage of the study, the antitumor effect of the hydrochloride salt of Compound A in combination with letrozole for the treatment of post-menopausal patients with Hormone Receptor Positive (+) metastatic breast cancer is investigated. Patients are administered the hydrochloride salt of Compound A and letrozole at a daily dosage identified to be with in the MTD in the first stage (Arm A).
In one additional experimental arm (Arm C), Patients are administered a daily dosage of the hydrochloride salt of Compound A in the amount of 60, 80 or 100 mg per oral on Monday through Fridays only each week in combination with 2.5 mg/day per oral letrozole.
Secondary outcome for the second stage is progression free survival and response.
Following the above experiment, 51 patients were accrued, 49 progressed after aromatase inhibitor therapy. Median age was 56 years and 95% of patients ad bone metastasis and 70% visceral metastases.

[2] = tested on: solid tumors; conditions: humans; Bendell et al., J. Clin. Oncology 2012; cited from earlier work
[3] = Arm C (31): 60, 80 or 100 mg per oral Monday through Fridays only

In the case of `Nc1cc(C(F)(F)F)c(-c2cc(N3CCOCC3)nc(N3CCOCC3)n2)cn1` [Compound A, 5-(2,6-di-morpholin-4-yl-pyrimidin-4-yl)-4-trifluoromethyl-pyridin-2-ylamine], the “Median TTP” value ([1]; Arm A (20): daily dosing) was 4 (2-11) months, the “Patient outcomes: CR” value ([1]; Arm A (20): daily dosing) was 1 and the “Patient outcomes: PD” value ([1]; Arm A (20): daily dosing) was 7. For the same compound, the “Patient outcomes: PR” value ([1]; Arm A (20): daily dosing) was 1, the “Patient outcomes: SD” value ([1]; Arm A (20): daily dosing) was 9 and the “Median TTP” value [1, 3] was “Not reached”. The “Patient outcomes: CR” value [1, 3] was 0, the “Patient outcomes: PD” value [1, 3] was 8 and the “Patient outcomes: PR” value [1, 3] was 0. For the same compound, the “Patient outcomes: SD” value [1, 3] was 4 and the “efficacy in the treatment of solid tumors” value [2] was “has been demonstrated in humans”.
